Data set [1] can be described thus: Compatibility with standard pharmaceutical excipients of solid oral dosage forms. Format: physicochemical. Particulars: excipients conventionally used for solid oral dosage forms such as tablets; e.g. as compound with phosphoric acid.
For data set [2] the following is noted: compared with the hydrochloride salts exemplified in WO98/30537; cited from earlier work.

Regarding `CC(=N)NCCSCC[C@H](N)C(=O)O` [(2S)-2-amino4-{[2-(ethanimidoylamino)ethyl]thio}butanoic acid], the “compatibility with standard pharmaceutical excipients” value in data set [1] is on record as “exhibits incompatability with standard pharmaceutical excipients”.
Take `CC(=N)NCCSCC[C@H](N)C(=O)O.O=P(O)(O)O` [phosphate salt of (2S)-2-amino4-{[2-(ethanimidoylamino)ethyl]thio}butanoic acid]: the hygroscopicity result in data set [2] is recorded as “considerably less hygroscopic”.

(Values after US20050222260A1, “(2S)-2-amino-a-{[2-(ethanimidoylamino) ethyl]thio}butanoic acid, a nitric oxide synthase inhibitor, in stabilized pharmaceutical dosage forms” (priority 2003, published 2005).)
